Values of other authors in patent US11098113B2, “Immunoglobulin single variable domains directed against macrophage migration inhibitory factor” (VIB VZW, priority 2016, dated 2021).

Tested on: LPS stimulated RAW264.7 macrophages
Conditions: ISO-1 at 10 μM, same in vitro conditions; cited from earlier work

Compound: COC(=O)C[C@@H]1CC(c2ccc(O)cc2)=NO1 (racemic) [ISO-1, (S,R)-3-(4-hydroxyphenyl)-4,5-dihydro-5-isoxazole acetic acid methyl ester]
- inhibition of TNF production: about 50%
